Measurements: US20140121201A1, “REGULATORY NETWORK FOR Th17 SPECIFICATION AND USES THEREOF” (priority 2012, published 2014)

Columns and labels:
[1] = test system: primary human macrophages; conditions: cited from earlier work
[2] = target: T1, STAT3 (mouse, UniProt P42227 2-770); experiment: co-immunoprecipitation of endogenous IRF4 from Th17-polarized cell lysate, western blot for STAT3
T1 construct: Endogenous transcription factor, probed by western blot (anti-STAT3, Cell Signaling) in the IRF4 immunoprecipitate
T1 sequence (P42227 2-770 limits assumed): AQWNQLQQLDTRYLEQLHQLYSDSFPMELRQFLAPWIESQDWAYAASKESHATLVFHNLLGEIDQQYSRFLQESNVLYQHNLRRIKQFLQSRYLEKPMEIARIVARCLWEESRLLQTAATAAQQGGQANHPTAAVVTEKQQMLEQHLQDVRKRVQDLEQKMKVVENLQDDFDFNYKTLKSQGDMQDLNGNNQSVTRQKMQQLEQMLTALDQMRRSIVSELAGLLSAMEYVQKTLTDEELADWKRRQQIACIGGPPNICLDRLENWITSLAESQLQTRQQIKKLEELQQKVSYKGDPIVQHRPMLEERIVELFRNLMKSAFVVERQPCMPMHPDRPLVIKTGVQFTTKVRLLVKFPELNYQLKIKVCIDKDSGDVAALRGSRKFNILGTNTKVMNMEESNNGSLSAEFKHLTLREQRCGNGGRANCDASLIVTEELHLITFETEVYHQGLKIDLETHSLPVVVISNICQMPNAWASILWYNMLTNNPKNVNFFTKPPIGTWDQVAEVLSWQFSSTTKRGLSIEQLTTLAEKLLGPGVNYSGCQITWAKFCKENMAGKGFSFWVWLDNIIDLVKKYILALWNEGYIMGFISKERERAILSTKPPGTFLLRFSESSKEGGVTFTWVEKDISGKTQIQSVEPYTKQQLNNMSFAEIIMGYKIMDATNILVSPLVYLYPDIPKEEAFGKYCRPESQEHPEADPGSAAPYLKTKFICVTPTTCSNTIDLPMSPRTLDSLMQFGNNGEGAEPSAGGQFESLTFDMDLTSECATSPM
Experimental: Naïve CD4 positive T cells were sorted and cultured under Th17 polarizing conditions for 48 h prior to assay. Whole cells lysates were prepared with high salt buffer (10 mM Tris, 420 mM NaCl, 0.5% NP40, 1 mM EDTA), sonicated, spun to remove insoluble particles, and diluted to a final concentration of 150 mM NaCl for co-immunoprecipitation. Endogenous IRF4 was immunoprecipitated using anti-IRF4 antibody in the presence or absence of 50 ug/ml ethidium bromide.

| Molecule | IC50 [1] [µM] | binding result [2] |
| --- | --- | --- |
| CCOC(=O)CCNc1cc(N2CCc3ccccc3CC2)nc(-c2ccccn2)n1 [GSK-J4] | 9 | – |
| IRF4 (other, mouse, UniProt Q64287 1-450, looked up, Endogenous transcription factor, immunoprecipitated with an anti-IRF4 antibody from Th17-polarized cell lysate; also called Endogenous IRF4) MNLETGSRGSEFGMSAVSCGNGKLRQWLIDQIDSGKYPGLVWENEEKSVFRIPWKHAGKQDYNREEDAALFKAWALFKGKFREGIDKPDPPTWKTRLRCALNKSNDFEELVERSQLDISDPYKVYRIVPEGAKKGAKQLTLDDTQMAMGHPYPMTAPYGSLPAQQVHNYMMPPHDRSWRDYAPDQSHPEIPYQCPVTFGPRGHHWQGPSCENGCQVTGTFYACAPPESQAPGIPIEPSIRSAEALALSDCRLHICLYYRDILVKELTTTSPEGCRISHGHTYDVSNLDQVLFPYPDDNGQRKNIEKLLSHLERGLVLWMAPDGLYAKRLCQSRIYWDGPLALCSDRPNKLERDQTCKLFDTQQFLSELQVFAHHGRPAPRFQVTLCFGEEFPDPQRQRKLITAHVEPLLARQLYYFAQQNTGHFLRGYELPEHVTTPDYHRSLRHSSIQE | – | no binding |
